Reference: PMC9516332 (Frontiers in Oncology, 2022)
Where two headings read alike, the source gives them in different places.

Key:
AP-1060 (ETV6-NTRK3) = assay: Cell viability assay; settings: read-out: IC50 in cell proliferation assay
[1] = molecular target: panel of 255 wild-type kinases (Homo sapiens, UniProt P48729); assay: Kinase panel profiling at 1 µmol/L (MSA or IMAP), percentage inhibition; format: biochemical; settings: kinase CK1α; 1 µmol/L single concentration; read-out: %-inhibition at 1 µmol/L, CK1α
[2] = molecular target: panel of 255 wild-type kinases (Homo sapiens, UniProt P06241); assay: as above; format: biochemical; settings: kinase FYN [isoform a]; 1 µmol/L single concentration; read-out: %-inhibition at 1 µmol/L, FYN [isoform a]
[3] = molecular target: panel of 255 wild-type kinases (Homo sapiens, UniProt Q13882); assay: as above; format: biochemical; settings: BRK kinase assay; 1 µmol/L single concentration; read-out: %-inhibition BRK
[4] = molecular target: panel of 255 wild-type kinases (Homo sapiens, UniProt Q9H422); assay: as above; format: biochemical; settings: kinase HIPK3; 1 µmol/L single concentration; read-out: %-inhibition at 1 µmol/L, HIPK3
[5] = molecular target: panel of 255 wild-type kinases (Homo sapiens, UniProt Q16816); assay: as above; format: biochemical; settings: kinase PHKG1; 1 µmol/L single concentration; read-out: %-inhibition at 1 µmol/L, PHKG1
134 cancer cell lines = assay: Cell viability assay (ATPlite, 72 hours), IC50 on cancer cell line panel

In the case of `FC(F)(F)c1ccc(CNc2ccc(Cc3c[nH]c4ncc(Cl)cc34)cn2)cn1` [pexidartinib], the IC50 (AP-1060 (ETV6-NTRK3)) is reported as over 31.6 µM, the inhibition at 1 µM [1] is reported as 4.47% and the inhibition at 1 µM [2] is reported as -9%. For the same molecule, the inhibition at 1 µM [3] was 15%, the inhibition at 1 µM [4] was 3.52% and the inhibition at 1 µM [5] was 21%. The IC50 (134 cancer cell lines; HEC-6, read-out: IC50 in cell proliferation assay, HEC-6 cell line (EGFR p.A289V)) was over 31.6 µM, the IC50 (134 cancer cell lines; Homo sapiens, 769-P, read-out: IC50 in cell proliferation assay, cell line 769-P) was over 31.6 µM and the IC50 (134 cancer cell lines; Homo sapiens, 786-0, read-out: IC50 in cell proliferation assay, cell line 786-O) was over 31.6 µM. For the same molecule, the IC50 (134 cancer cell lines; Homo sapiens, A 172, read-out: IC50 in cell proliferation assay, cell line A-172) was over 31.6 µM, the IC50 (134 cancer cell lines; Homo sapiens, A204, read-out: IC50 in cell proliferation assay, cell line A-204) was 0.935 µM and the IC50 (134 cancer cell lines; Homo sapiens, A498, read-out: IC50 in cell proliferation assay, cell line A-498) was over 31.6 µM. It also gave an IC50 (134 cancer cell lines; Homo sapiens, A549, read-out: IC50 in cell proliferation assay, cell line A-549) of over 31.6 µM, an IC50 (134 cancer cell lines; Homo sapiens, A704, read-out: IC50 in cell proliferation assay, cell line A-704) of over 31.6 µM and an IC50 (134 cancer cell lines; Homo sapiens, A-375, read-out: IC50 in cell proliferation assay, cell line A-375 (BRAF p.V600E)) of over 31.6 µM. The IC50 (134 cancer cell lines; Homo sapiens, A-427, read-out: IC50 in cell proliferation assay, cell line A-427) was 24.1 µM, the IC50 (134 cancer cell lines; Homo sapiens, ACHN, read-out: IC50 in cell proliferation assay, cell line ACHN) was over 31.6 µM and the IC50 (134 cancer cell lines; Homo sapiens, AN3-CA, read-out: IC50 in cell proliferation assay, cell line AN3-CA (FGFR2 p.N549K)) was 25.3 µM. For the same molecule, the IC50 (134 cancer cell lines; Homo sapiens, ASPC1, read-out: IC50 in cell proliferation assay, cell line AsPC-1) was over 31.6 µM, the IC50 (134 cancer cell lines; Homo sapiens, AU565, read-out: IC50 in cell proliferation assay, cell line AU565 (ERBB2 amplification)) was 25.4 µM and the IC50 (134 cancer cell lines; Homo sapiens, BT-20, read-out: IC50 in cell proliferation assay, cell line BT-20) was over 31.6 µM. For the same molecule, the IC50 (134 cancer cell lines; Homo sapiens, BT-474, read-out: IC50 in cell proliferation assay, cell line BT-474 (ERBB2 amplification)) was over 31.6 µM, the IC50 (134 cancer cell lines; Homo sapiens, BT-549, read-out: IC50 in cell proliferation assay, cell line BT-549) was over 31.6 µM and the IC50 (134 cancer cell lines; Homo sapiens, BXPC-3, read-out: IC50 in cell proliferation assay, cell line BxPC-3) was over 31.6 µM. It also gave an IC50 (134 cancer cell lines; Homo sapiens, C-33-A, read-out: IC50 in cell proliferation assay, cell line C-33 A) of over 31.6 µM, an IC50 (134 cancer cell lines; Homo sapiens, CAL-27, read-out: IC50 in cell proliferation assay, cell line CAL-27) of over 31.6 µM and an IC50 (134 cancer cell lines; Homo sapiens, CCF-STTG1, read-out: IC50 in cell proliferation assay, cell line CCF-STTG1) of over 31.6 µM. It also gave an IC50 (134 cancer cell lines; Homo sapiens, CCRF-CEM, read-out: IC50 in cell proliferation assay, cell line CCRF-CEM) of over 31.6 µM, an IC50 (134 cancer cell lines; Homo sapiens, COLO 205, read-out: IC50 in cell proliferation assay, cell line COLO 205 (BRAF p.V600E)) of over 31.6 µM and an IC50 (134 cancer cell lines; Homo sapiens, COLO-829, read-out: IC50 in cell proliferation assay, cell line COLO 829 (BRAF p.V600E)) of over 31.6 µM. The IC50 (134 cancer cell lines; Homo sapiens, DLD-1, read-out: IC50 in cell proliferation assay, cell line DLD-1) was over 31.6 µM, the IC50 (134 cancer cell lines; Homo sapiens, DU-4475, read-out: IC50 in cell proliferation assay, cell line DU4475 (BRAF p.V600E)) was over 31.6 µM and the IC50 (134 cancer cell lines; Homo sapiens, Daoy, read-out: IC50 in cell proliferation assay, cell line Daoy) was over 31.6 µM. The IC50 (134 cancer cell lines; Homo sapiens, DoTc2-4510, read-out: IC50 in cell proliferation assay, cell line DoTc2 4510) was over 31.6 µM, the IC50 (134 cancer cell lines; Homo sapiens, EOL1, read-out: IC50 in cell proliferation assay, cell line EoL-1 (FIP1L1-PDGFRA)) was 0.01 µM and the IC50 (134 cancer cell lines; Homo sapiens, FaDu, read-out: IC50 in cell proliferation assay, cell line FaDu) was over 31.6 µM. For the same molecule, the IC50 (134 cancer cell lines; Homo sapiens, G-361, read-out: IC50 in cell proliferation assay, cell line G-361 (BRAF p.V600E)) was 23.6 µM, the IC50 (134 cancer cell lines; Homo sapiens, HCC827, read-out: IC50 in cell proliferation assay, cell line HCC827 (EGFR exon19del)) was over 31.6 µM and the IC50 (134 cancer cell lines; Homo sapiens, HCC4006, read-out: IC50 in cell proliferation assay, cell line HCC4006 (EGFR exon19del)) was over 31.6 µM. The IC50 (134 cancer cell lines; Homo sapiens, HCT-15, read-out: IC50 in cell proliferation assay, cell line HCT 15) was over 31.6 µM, the IC50 (134 cancer cell lines; Homo sapiens, HCT-116, read-out: IC50 in cell proliferation assay, cell line HCT 116) was over 31.6 µM and the IC50 (134 cancer cell lines; Homo sapiens, HEC-1, read-out: IC50 in cell proliferation assay, HEC-1 cell line) was over 31.6 µM. The IC50 (134 cancer cell lines; Homo sapiens, HEC-1B, read-out: IC50 in cell proliferation assay, HEC-1-B cell line (EGFR p.A864V)) was over 31.6 µM, the IC50 (134 cancer cell lines; Homo sapiens, HL-60, read-out: IC50 in cell proliferation assay, HL-60 cell line) was over 31.6 µM and the IC50 (134 cancer cell lines; Homo sapiens, HT, read-out: IC50 in cell proliferation assay, HT cell line) was over 31.6 µM. It also gave an IC50 (134 cancer cell lines; Homo sapiens, HT-1080, read-out: IC50 in cell proliferation assay, HT-1080 cell line) of over 31.6 µM, an IC50 (134 cancer cell lines; Homo sapiens, Hs746T, read-out: IC50 in cell proliferation assay, Hs 746.T cell line (MET exon14skip + amplification)) of over 31.6 µM and an IC50 (134 cancer cell lines; Homo sapiens, Hs-578T, read-out: IC50 in cell proliferation assay, Hs 578T cell line) of 25.7 µM. The IC50 (134 cancer cell lines; Homo sapiens, HuTu80, read-out: IC50 in cell proliferation assay, HuTu 80 cell line) was 22.8 µM, the IC50 (134 cancer cell lines; Homo sapiens, J82, read-out: IC50 in cell proliferation assay, J82 cell line) was over 31.6 µM and the IC50 (134 cancer cell lines; Homo sapiens, Jurkat E6.1, read-out: IC50 in cell proliferation assay, Jurkat E6.1 cell line) was over 31.6 µM. For the same molecule, the IC50 (134 cancer cell lines; Homo sapiens, K562, read-out: IC50 in cell proliferation assay, K-562 cell line) was over 31.6 µM, the IC50 (134 cancer cell lines; Homo sapiens, KATO III, read-out: IC50 in cell proliferation assay, KATO III cell line (FGFR2 amplification)) was 10.1 µM and the IC50 (134 cancer cell lines; Homo sapiens, KG-1, read-out: IC50 in cell proliferation assay, KG-1 cell line (FGFR1OP2-FGFR1)) was 7.51 µM. For the same molecule, the IC50 (134 cancer cell lines; Homo sapiens, KLE, read-out: IC50 in cell proliferation assay, KLE cell line) was over 31.6 µM, the IC50 (134 cancer cell lines; Homo sapiens, KMS-11, read-out: IC50 in cell proliferation assay, KMS-11 cell line (FGFR3 p.Y373C)) was over 31.6 µM and the IC50 (134 cancer cell lines; Homo sapiens, KU812, read-out: IC50 in cell proliferation assay, Ku812 cell line) was over 31.6 µM. For the same molecule, the IC50 (134 cancer cell lines; Homo sapiens, Kasumi 1, read-out: IC50 in cell proliferation assay, Kasumi-1 cell line (KIT p.N822K)) was 0.228 µM, the IC50 (134 cancer cell lines; Homo sapiens, LC-2-ad, read-out: IC50 in cell proliferation assay, LC-2/ad cell line (CCDC6-RET)) was over 31.6 µM and the IC50 (134 cancer cell lines; Homo sapiens, LNCaP-Clone-FGC, read-out: IC50 in cell proliferation assay, LNCaP clone FGC cell line) was over 31.6 µM. The IC50 (134 cancer cell lines; Homo sapiens, LS174T, read-out: IC50 in cell proliferation assay, LS174T cell line) was over 31.6 µM, the IC50 (134 cancer cell lines; Homo sapiens, LS-411N, read-out: IC50 in cell proliferation assay, LS411N cell line (BRAF p.V600E)) was over 31.6 µM and the IC50 (134 cancer cell lines; Homo sapiens, LoVo, read-out: IC50 in cell proliferation assay, LoVo cell line) was over 31.6 µM. The IC50 (134 cancer cell lines; Homo sapiens, MCF7, read-out: IC50 in cell proliferation assay, MCF-7 cell line) was 18.1 µM, the IC50 (134 cancer cell lines; Homo sapiens, MDA-MB-231, read-out: IC50 in cell proliferation assay, MDA-MB-231 cell line) was over 31.6 µM and the IC50 (134 cancer cell lines; Homo sapiens, MDA-MB-453, read-out: IC50 in cell proliferation assay, MDA-MB-453 cell line) was over 31.6 µM. For the same molecule, the IC50 (134 cancer cell lines; Homo sapiens, MDA-MB-468, read-out: IC50 in cell proliferation assay, MDA-MB-468 cell line) was over 31.6 µM, the IC50 (134 cancer cell lines; Homo sapiens, MG-63, read-out: IC50 in cell proliferation assay, MG-63 cell line) was over 31.6 µM and the IC50 (134 cancer cell lines; Homo sapiens, MIA PaCa-2, read-out: IC50 in cell proliferation assay, MIA PaCa-2 cell line) was over 31.6 µM.
